The structures appear in SMILES notation.

Assay [1] concerns HeLa. Briefly: Induction of apoptosis in human HeLa cells assessed as viable cells at 10 nM incubated for 24 hrs by annexin V FITC and propidium iodide staining based flow cytometry analysis (reference value: 85.7%). Format: functional. Particulars: read-out: Activity. In general terms: Flow cytometry measures light scatter and fluorescence of single cells or particles in a stream.

The next assay deals with HCT-116. Briefly: Antiproliferative activity against human HCT-116 cells assessed as reduction in cell viability incubated for 48 hrs by MTS assay. Format: functional, cell-based. The settings on record: HCT-116, 48 h.
The test system of assay [2] is HeLa. Briefly: Induction of apoptosis in human HeLa cells assessed as late apoptotic cells at 10 nM incubated for 72 hrs by annexin V FITC and propidium iodide staining based flow cytometry analysis (reference value: 4.70%). Type of assay: functional.
The test system of assay [3] is HeLa. Briefly: Induction of apoptosis in human HeLa cells assessed as early apoptotic cells at 10 nM incubated for 72 hrs by annexin V FITC and propidium iodide staining based flow cytometry analysis (reference value: 2.36%). Type of assay: functional.
The test system of assay [4] is HeLa. Kind of assay: Induction of mitochondrial membrane potential alteration in human HeLa cells assessed as early apoptotic cells at 10 nM measured after 48 hrs by JC1 staining-based flow cytometry analysis (reference value: 9.07 %). Format: functional.
The subject of the next assay is HL-60. Briefly: Antiproliferative activity against human HL-60 cells assessed as reduction in cell viability incubated for 48 hrs by MTS assay. Particulars: HL-60, 48 h. Format: functional, cell-based. On the technique in general: Formazan colour is commonly taken as a measure of viable cells.
Assay [5] relates to HeLa. Kind of assay: Induction of apoptosis in human HeLa cells assessed as early apoptotic cells at 10 nM incubated for 48 hrs by annexin V FITC and propidium iodide staining based flow cytometry analysis (reference value: 6.01%). Format: functional.
The test system of assay [6] is HeLa. Kind of assay: Induction of apoptosis in human HeLa cells assessed as early apoptotic cells at 10 nM incubated for 24 hrs by annexin V FITC and propidium iodide staining based flow cytometry analysis (reference value: 0.12%). Type of assay: functional.
Assay [7] deals with HeLa. Kind of assay: Induction of apoptosis in human HeLa cells assessed as necrotic cells at 10 nM incubated for 72 hrs by annexin V FITC and propidium iodide staining based flow cytometry analysis (reference value: 2.88 %). Format: functional.
Assay [8] relates to HeLa. Briefly: Induction of apoptosis in human HeLa cells assessed as late apoptotic cells at 10 nM incubated for 48 hrs by annexin V FITC and propidium iodide staining based flow cytometry analysis (reference value: 8.87%). Type of assay: functional.
The test system of assay [9] is HeLa. Kind of assay: Induction of mitochondrial membrane potential alteration in human HeLa cells assessed as viable cells at 10 nM measured after 48 hrs by JC1 staining-based flow cytometry analysis (reference value: 90.9%). Particulars: read-out: Activity. Format: functional.
In assay [10] the test system is HeLa. Kind of assay: Induction of apoptosis in human HeLa cells assessed as late apoptotic cells at 10 nM incubated for 24 hrs by annexin V FITC and propidium iodide staining based flow cytometry analysis (reference value: 0.05%). Type of assay: functional.
The test system of assay [11] is HeLa. Briefly: Antiproliferative activity against human HeLa cells assessed as reduction in cell viability incubated for 48 hrs by MTS assay. Format: functional, cell-based.
Assay [12] deals with HeLa. Kind of assay: Induction of mitochondrial membrane potential alteration in human HeLa cells assessed as necrotic cells at 10 nM measured after 48 hrs by JC1 staining-based flow cytometry analysis (reference value: 0%). Type of assay: functional.
The test system of assay [13] is HeLa. Briefly: Induction of mitochondrial membrane potential alteration in human HeLa cells assessed as late apoptotic cells at 10 nM measured after 48 hrs by JC1 staining-based flow cytometry analysis (reference value: 0.009%). Format: functional.
Assay [14] has as its system HeLa. Kind of assay: Induction of apoptosis in human HeLa cells assessed as necrotic cells at 10 nM incubated for 48 hrs by annexin V FITC and propidium iodide staining based flow cytometry analysis (reference value: 1.85 %). Format: functional.
Assay [15] has as its system HeLa. Briefly: Induction of apoptosis in human HeLa cells assessed as viable cells at 10 nM incubated for 72 hrs by annexin V FITC and propidium iodide staining based flow cytometry analysis (reference value: 90.1%). Type of assay: functional. The settings on record: read-out: Activity.
Assay [16] concerns HeLa. Kind of assay: Induction of apoptosis in human HeLa cells assessed as necrotic cells at 10 nM incubated for 24 hrs by annexin V FITC and propidium iodide staining based flow cytometry analysis (reference value: 1.14 %). Type of assay: functional.
The next assay concerns A549. Kind of assay: cells. Particulars: Homo sapiens, A549, 48 h.
The subject of assay [17] is HeLa. Briefly: Induction of apoptosis in human HeLa cells assessed as viable cells at 10 nM incubated for 48 hrs by annexin V FITC and propidium iodide staining based flow cytometry analysis (reference value: 85.5%). Format: functional. The settings on record: read-out: Activity.

Description for A549: Antiproliferative activity against human A549 cells assessed as reduction in cell viability incubated for 48 hrs by MTS assay

For `COc1ccc(/C=C\c2cc(OC)c(OC)c(OC)c2)cc1O` [COMBRETASTATIN A4], the viability at 0.01 µM in the assay with HeLa [1] amounted to 79.4%; in the assay with HeLa [9], 82%; with HeLa [15] it was 25.1%; in the assay with HeLa [17], 16.9%. Moreover, the half-maximal inhibitory concentration (IC50) (commonly the concentration that inhibits the measured activity by half) was 1.1 nM in the assay on HCT-116, 1.3 nM in the assay with HL-60, 1.4 nM in the assay on HeLa [11] and 7.5 nM in the assay with A549. Also, the Activity was 31.8% with HeLa [2]; 17% with HeLa [3]; 18% in the assay on HeLa [4]; 20.1% in the assay with HeLa [5]; 7.41% with HeLa [6]; 23.3% in the assay with HeLa [7]. Further, the Activity in the assay on HeLa [8] worked out at 51.9%; in the assay with HeLa [10], 7.5%; in the assay on HeLa [12], 0.011%; with HeLa [13], 0%; with HeLa [14], 11.2%; with HeLa [16] it was 8.87%.

These data come from ChEMBL document CHEMBL5126582, “Discovery of (2-(pyrrolidin-1-yl)thieno[3,2-d]pyrimidin-4-yl)(3,4,5-trimethoxyphenyl)methanone as a novel potent tubulin depolymerizing and vascular disrupting agent” (Eur J Med Chem, 2022).
